The values below come from patent US20030125287A1, “Antisense oligonucleotides and methods to induce tumor cell death” (Hybridon, Inc., priority 2001, published 2003).

“Also recorded” adds a separate entry of the source. Oligonucleotides are written 5' to 3', each unit as a sugar letter and its base; * is a phosphorothioate linkage, no mark a phosphodiester; rarer units and linkages stand in square brackets, end groups in braces. Plain capitals give the bases only. d = 2'-deoxy (DNA)

Common to all, as to type: cell-based, human
For data set [1], the system named is TC620 cells. The experiment in a line: TUNEL assay in TC620 cells. The protocol: To confirm the results of the PARP data that survivin down-regulation induced apoptosis, a TUNEL assay was performed. The TUNEL reaction preferentially labels cleaved genomic DNA generated during apoptosis, by the addition of fluorescein dUTP at strand breaks. The TUNEL assay was performed on lipofectin, mismatch oligonucleotide 1132, and survivin antisense oligonucleotide-treated TC620 cells. The percentages of TUNEL-positive cells treated with survivin antisense oligonucleotides 904 or 906 at 400 nM concentration were 52% and 54%, respectively. At 600 nM, 63% of survivin antisense oligonucleotide 904- and 906-treated TC620 cells were TUNEL-positive. Only 4% of the cells were TUNEL-positive in the presence of lipofectin or mismatch oligonucleotide 1132.
The TUNEL assay was performed to assess apoptotic cell death in survivin antisense oligonucleotide-treated TC620 cells using the In Situ Cell Death Detection Kit, Fluorescein (Roche Molecular Biochemicals, Indianapolis, Ind.). The TUNEL reaction preferentially labels cleaved genomic DNA generated during apoptosis, by the addition of fluorescein dUTP at strand breaks. Lipofectin, mismatch oligonucleotide 1132 or survivin antisense oligonucleotide-treated TC620 cells were fixed and permeabilized as described for PI staining. Cells were washed and incubated in the TUNEL reaction mixture, prepared according to the manufacture's recommendations, for 1 h at 37° C. Omission of the terminal deoxynucleotidyl transferase in the label solution served as a negative control for the TUNEL fluorescence staining. Cells were washed twice and counterstained with the DNA specific dye DAPI (1:1000 of a 1 mg/ml stock; 15 min at room temperature). Cells were examined with an Olympus 1×70 inverted microscope. For each treatment 15 random, 40×objective fields consisting of about 1000 cells were examined in duplicate chamber slides. TUNEL-positive nuclei were expressed as a percent of the total number of cells per individual field.

Data set [2] has as its system TC620 cells. The experiment in a line: Propidium iodide staining, nuclear morphology of TC620 cells. Conditions: for nuclear morphology by PI staining: 600 nM (FIG. 7); for number of cells in metaphase, with zVAD-fmk compared with oligonucleotide alone: 600 nM plus zVAD-fmk (FIG. 8B). The protocol:
Propidium iodide (PI) staining was performed to investigate changes in nuclear morphology caused by treatment of TC620 cells with survivin antisense oligonucleotides. […] TC620 cells were treated with lipofectin (FIG. 7A), or 600 nM mismatch oligonucleotide 1132 (FIG. 7B), survivin antisense oligonucleotide 904 (FIGS. 7C and 7E), or 906 (FIG. 7D), and stained with PI. Quantification results for TC620 cells treated with 600 nM survivin antisense oligonucleotide 904, 906, or mismatch oligonucleotide 1132, alone or in the presence of zVAD-fmk, are shown in FIGS. 8A-B. Cells in metaphase were identified as those with chromosomes aligned on the metaphase plate.
(§1) Survivin antisense oligonucleotide-treated cells were fixed with 4% paraformaldehyde for 30 min at room temperature, washed with 1×TBS, permeabilized with 0.1% Triton X-100 for 30 min and treated with 10 μg/ml DNasc free RNase A (Sigma) for 60 min. Nuclei were stained with 200 μg /ml PI for 30 min at 4° C. and washed twice with 1×TBS. Nuclear morphology was assessed on an inverted Olympus 1×70 fluorescence microscope equipped with phase and epifluorescence optics. For each treatment about 600 nuclei were scored as normal, condensed (apoptotic), or abnormal (macronuclei, multilobed) on 15 random, 40×objective fields in duplicate. Quantification results are mean±SEM obtained from two independent experiments performed in duplicate.

Data set [3] concerns survivin. The experiment in a line: Western blot of survivin protein in antisense oligonucleotide-treated MSN cells. The conditions noted are these: for effect on survivin protein levels / percentage of survivin protein over β-tubulin relative to lipofectin: lipofectin; for effect on survivin protein levels: 48 hours; for decrease in survivin protein levels relative to lipofectin-treated control, normalized to β-tubulin / percentage of survivin protein over β-tubulin relative to lipofectin: 400 nM, 48 hours (FIG. 3A). Here is the method:
Six survivin (900-906) antisense oligonucleotides were administered at 400 nM to MSN cells in the presence of lipofectin for 48 hours. Each lane has 100 μg of protein. The blots were cut at 32.9 kD and the bottom incubated with the survivin polyclonal antibody (1:500), while the top was incubated with β-tubulin.
Since survivin antisense oligonucleotide 903 decreased survivin protein levels by 76%, the dose dependency of 903 on survivin protein levels was further studied. As expected, mismatched oligonucleotides had no effect on the relative abundance of survivin. […] In the presence of lipofectin, survivin antisense oligonucleotide 903 was administered to MSN cells for 48 hours at 50 nM to 200 nM. Total protein (100 μg) was loaded/lane.
Survivin antisense oligonucleotide 904 decreased survivin protein levels by 46% and 60% while survivin levels were unchanged in cells incubated with the mismatched oligonucleotide 1132. MSN cells were treated with lipofectin, survivin antisense oligonucleotide 904 or 908 at 400 nM and 600 nM, or mismatched oligonucleotide 1132 at 400 nM concentrations. Total protein (100 μg) was separated by SDS polyacrylamide gel electrophoresis and transferred to a nitrocellulose support. The blots were cut at 32.9 kD and the bottom blots incubated with the survivin polyclonal antibody (1:500), while the top blots were incubated with tubulin.
The antisense oligonucleotides were synthesized on solid support with an automated DNA synthesizer using β-cyanoethylphosphoramidite chemistry. In order to prevent rapid degradation of the antisense oligonucleotides by cellular nucleases, oxidation was carried out with Becauge sulfurizing agent to obtain phosphorothioate backbone modified oligonucleotides. After their synthesis, the oligonucleotides were released from the solid support, deprotected, purified by reverse-phase HPLC, desalted, filtered and lyophilized. The purity and sequence integrity of oligonucleotides was ascertained by capillary gel electrophoresis and MALDI-TOF mass spectral analysis and the concentrations measured at […]. Cells were grown in 100 mm dishes and oligonucleotide treatment was performed on subconfluent cultures in the presence of Lipofectin (GIBCO) according to the manufacturer. Forty-eight hours following treatment, total protein homogenates were isolated.
Ten micrograms of the fusion protein was incubated with the survivin antibody (1:500) at 4° C. for 2 hours to overnight prior to immunoblotting. […] Blots were cut at 32.9 kD, and the bottom part of the blots were incubated with the survivin antibody overnight at 4° C. and visualized by enhanced chemiluminescence (Enhanced Chemiluminescence, Amersham, Arlington Heights, Ill.) as previously described (Sharma et al. Cell. Motil. Cytoskeleton 27:234-247).

In data set [4] the test system is MSN cells. The experiment in a line: Propidium iodide staining, nuclear morphology of MSN cells. The conditions noted are these: for nuclear morphology by PI staining: 600 nM (FIG. 9); for percentage of cells with abnormal nuclear morphology by PI staining: 600 nM alone (FIG. 9G). Here is the method: Propidium iodide (PI) staining and phase microscopy were used to assess the nuclear morphology of the survivin antisense oligonucleotide-treated MSN cells. MSN cells were treated with lipofectin (FIG. 9A), or 600 nM mismatch oligonucleotide 1132 (FIG. 9B) or survivin antisense oligonucleotide 904 (FIGS. 9C and 9E) or 906 (FIG. 9D), and stained with PI. To assess the effect on nuclear morphology of co-administration of survivin antisense oligonucleotide and the caspases inhibitor zVAD-fmk, MSN cells were treated with 600 nM survivin antisense oligonucleotide 904, 906, or mismatch oligonucleotide 1132 alone, or in the presence of 20 μM zVAD-fmk, and stained with PI (FIG. 9G).
as §1

Turning to “d(GCACCTAGTCTCCCTGCACC) (DNA, all phosphorothioate, methylation of C not given here) [Oligo 1132, mismatched phosphorothioate control oligonucleotide, not complementary to survivin mRNA, reference compound]”, the “percentage of TUNEL-positive cells” value in data set [1] (concentration not given) was 4%. In addition, in data set [2], the “nuclear morphology by PI staining” value is recorded as “normal nuclear morphology” and the “number of cells in metaphase, with zVAD-fmk compared with oligonucleotide alone” value (“number … compared with oligonucleotide alone” for short) was “did not affect the number of cells in metaphase”. Also, in data set [2] (600 nM (FIG. 8A)), the “percentage of apoptotic cells (chromatin fragmentation, apoptotic bodies) by PI staining” value is listed as 2% and the “percentage of cells with abnormal (multiple multilobed) nuclei by PI staining” value is 1%. In data set [3], the “effect on survivin protein levels” value is on record as “had no effect; also recorded: did not alter survivin protein levels”. Besides, in data set [4], the “nuclear morphology by PI staining” value is listed as “normal nuclear morphology”.
Consider “d(GCTTCCCAGTCACATCCTGT) (antisense dG*dC*dT*dT*dC*dC*dC*dA*dG*dT*dC*dA*dC*dA*dT*dC*dC*dT*dG*dT) [Oligo 906, 20-mer phosphorothioate survivin antisense oligonucleotide, complementary to survivin mRNA 11897-11916]”, for which the “percentage of TUNEL-positive cells” value in data set [1] (400 nM) is 54%. In addition, the “percentage of TUNEL-positive cells” value in data set [1] (600 nM) worked out at 63%. For the same substance, in data set [2], the “nuclear morphology by PI staining” value was “abnormal macronuclei that are multilobed” and the “number … compared with oligonucleotide alone” value is “approximate two-fold increase”. In data set [3], the “decrease in survivin protein levels relative to lipofectin-treated control, normalized to β-tubulin” value came to 73% and the “percentage of survivin protein over β-tubulin relative to lipofectin” value was 26.9%. In data set [4], the “nuclear morphology by PI staining” value is recorded as “abnormal multiple multilobed nuclei” and the “percentage of cells with abnormal nuclear morphology by PI staining” value was determined as 31%.
Consider “d(TCTTGGCTCTTTCTCTGTCC) (antisense dT*dC*dT*dT*dG*dG*dC*dT*dC*dT*dT*dT*dC*dT*dC*dT*dG*dT*dC*dC) [Oligo 904, 20-mer phosphorothioate survivin antisense oligonucleotide, complementary to survivin mRNA 5248-5267]”, for which the “percentage of TUNEL-positive cells” value in data set [1] (400 nM) is recorded as 52%. The “percentage of TUNEL-positive cells” value in data set [1] (600 nM) is given as 63%. For the same substance, in data set [2], the “nuclear morphology by PI staining” value is listed as “apoptotic nuclei; also recorded: abnormal macronuclei that are multilobed” and the “number … compared with oligonucleotide alone” value is “approximate two-fold increase”. Besides, the “decrease in survivin protein levels” value in data set [3] (400 nM (FIG. 4C)) stood at 46%. In addition, in data set [3], the “decrease in survivin protein levels relative to lipofectin-treated control, normalized to β-tubulin” value worked out at 64%; the “percentage of survivin protein over β-tubulin relative to lipofectin” value was 35.7%; the “effect on survivin protein levels” value is listed as “effective in reducing survivin protein levels in a concentration-dependent manner”. The “decrease in survivin protein levels” value in data set [3] (600 nM (FIG. 4C)) is listed as 60%. For the same substance, in data set [4], the “nuclear morphology by PI staining” value is listed as “abnormal multiple multilobed nuclei” and the “percentage of cells with abnormal nuclear morphology by PI staining” value came out at 27%.
